Experimental data as given in US20230321083A1, “Inhibitors of GPR174 and Uses Thereof” (Omeros Corporation, priority 2016, published 2023).

How the values were obtained:
[1] = tested on: PD-L1, TIGIT, AREG expression in human T cells; assay: PD-L1, TIGIT and AREG expression on human T cells in PBMC cultures; type: cell-based; conditions: 1.25 or 5 μM; one day post-stimulation; dose-dependent
Method: PBMC cells from a single donor mixed with additional irradiated antigen-presenting cells (APC) and anti-CD3 antibodies (UCHT1) were incubated in the presence of various concentrations of GPR174 inhibitory compound #10 (1.25 to 5 μM) or equivalent concentrations of vehicle (DMSO). The cells were analyzed by flow cytometry for expression of CD4, CD8, PD-L1, TIGIT and AREG.

[2] = tested on: CTLA4 expression in human PBMC T cells; assay: CTLA4 expression on T cell subsets in human PBMC cultures; type: cell-based; conditions: 0.19-6.0 μM; one day post-stimulation; dose-dependent
Method: PBMC cells from a single donor were cultured overnight with additional irradiated antigen-presenting cells (APC) in the presence of various concentrations of GPR174 inhibitory compound #10 (0.019 to 6 μM) or equivalent concentrations of vehicle (DMSO). Anti-CD3 (OKT3) was then added to the cultures for an additional 24 hours. The cells were analyzed by flow cytometry for expression of FOXP3, CTLA-4, CD4, CD3, CD45RA and CD25.

C57BL/6+DBA1 splenocytes = assay: Cytokines in C57BL/6 + DBA1 splenocyte co-culture; type: cell-based, mouse; conditions: 30 μM; day 6 after mixing
Method: In order to stimulate T cells in mice, splenocytes obtained from two different mouse strains, C57BL/6 and DBA1, were mixed in culture.
The effect of compound #10 on production of cytokines (IFN-γ, IL-5, TNF-α, IL-2, IL-6, IL-4, IL-10, IL-9, IL17A, IL17F, IL-21, IL-22 and IL-13) in mouse splenocyte co-cultures was determined as follows. Splenocytes obtained from two different mouse strains, C57BL/6 and DBA1, were mixed in culture in the presence or absence of 30 μM compound #10. Cytokine production of IFN-γ, IL-5, TNF-α, IL-2, IL-6, IL-4, IL-10, IL-9, IL-17A, IL-17F, IL-21, IL-22 and IL-13 was measured in the co-culture supernatant at day 4 and day 6 after mixing. Cytokine levels were determined by LEGENDplex™ bead-based immunoassays from BioLegend (San Diego, CA) according to the manufacturer's instructions.

CC1CCN(c2cc(N3CCN(S(=O)(=O)c4ccccc4)CC3)c([N+](=O)[O-])cc2F)CC1 [Compound 10]
fraction of human CD4+ T cells with AREG positive staining [1]: reduced | fraction of human CD4+ T cells with PD-L1 positive staining [1]: reduced | fraction of human CD8+ T cells with TGIT positive staining [1]: reduced | CTLA4 positive fraction of memory Treg (CD45RA−FOXP3+) [2]: reduced | CTLA4 positive fraction of memory non-Treg (CD45RA−FOXP3−) [2]: reduced | CTLA4 positive fraction of naïve non-Treg cells (CD45RA+FOXP3−) [2]: reduced | CTLA-4 positive fraction of naïve Treg cells (CD45RA+FOXP3+) [2]: reduced | fold induction of a panel of cytokines in splenocyte co-culture (C57BL/6+DBA1 splenocytes): strong alteration in quantities of cytokines
